The assay concerns the target T1, PriA_Blon (Bifidobacterium longum, UniProt Q8G4S5).
T1 sequence (Q8G4S5 1-241): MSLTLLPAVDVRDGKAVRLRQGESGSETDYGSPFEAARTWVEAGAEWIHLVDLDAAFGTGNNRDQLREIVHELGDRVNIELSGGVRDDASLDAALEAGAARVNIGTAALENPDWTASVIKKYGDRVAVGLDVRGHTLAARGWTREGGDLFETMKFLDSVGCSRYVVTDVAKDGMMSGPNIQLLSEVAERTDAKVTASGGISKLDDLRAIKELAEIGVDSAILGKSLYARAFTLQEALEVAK
Put plainly: steady-state kinetics, PRA isomerase. It is filed as biochemical. The settings on record: read-out: In vitro activity^a / PRA isomerase (TrpF) / K M μM.

Take `O=C(O)c1ccccc1N[C@@H]1O[C@H](COP(=O)(O)O)[C@@H](O)[C@H]1O` [PRA, N’-(5′-phosphoribosyl) anthranilate]: the Km worked out at 6.1 ± 0.1 µM.

Values taken from PMC4462073 (BMC Evolutionary Biology, 2015).
